In brackets after ≈: the same amount, converted by molar mass. Read-outs that look alike come from different tables or passages of the source. Some results are limits rather than exact numbers.

Common to all, as to type: cell-based
One assay concerns Y. pestis. The experiment in a line: microbe, parasite or virus in culture. As to conditions: for MIC50: read-out: Y. pestis MIC50; for MIC: read-out: Y. pestis MIC Range.
In a further assay the test system is P. aeruginosa ATCC27853. The experiment in a line: MIC, microtiter-based liquid assay (CLSI). Conditions: Pseudomonas aeruginosa.
Another assay has as its system E. coli 1705878. Description: MIC, microtiter-based liquid assay (CLSI). As to conditions: Escherichia coli, MDR strain.
Assay [1] concerns S. pneumoniae 02J1175 Mef(A). Description: MIC, microtiter-based liquid assay (CLSI). Conditions: Streptococcus pneumoniae.
The subject of assay [2] is E. faecium A6349 VanA + LNZ-R. Description: MIC, microtiter-based liquid assay (CLSI). As to conditions: Enterococcus faecium.
For a further assay, the system named is E. coli CAG12184 TolC. Description: MIC, microtiter-based liquid assay (CLSI). Conditions: Escherichia coli, CAG12184TOLC.
For another assay, the system named is A. baumannii 1705943. The experiment in a line: MIC, microtiter-based liquid assay (CLSI). As to conditions: Acinetobacter baumannii.
The test system of the next assay is B. pseudomallei. The experiment in a line: microbe, parasite or virus in culture. As to conditions: Burkholderia pseudomallei.
In a further assay the test system is F. tularensis. The experiment in a line: microbe, parasite or virus in culture. As to conditions: Francisella tularensis; for MIC50: read-out: F. tularensis MIC50; for MIC: read-out: F. tularensis MIC Range.
The next assay relates to A. baumannii 1705936. Description: MIC, microtiter-based liquid assay (CLSI). Conditions: Acinetobacter baumannii, MDR strain.
A further assay relates to K. pneumoniae 1705966. The experiment in a line: MIC, microtiter-based liquid assay (CLSI). As to conditions: Klebsiella pneumoniae.
Another assay concerns E. coli MG1655 parent. Description: MIC, microtiter-based liquid assay (CLSI). As to conditions: Escherichia coli.
A further assay deals with S. aureus 11540 MRSA. Description: MIC, microtiter-based liquid assay (CLSI). As to conditions: Staphylococcus aureus.
The next assay has as its system E. coli ATCC25922. Description: MIC, microtiter-based liquid assay (CLSI). Conditions: Escherichia coli.
The subject of the next assay is B. mallei. The experiment in a line: microbe, parasite or virus in culture. As to conditions: Burkholderia mallei; for MIC50: read-out: B. mallei MIC50; for MIC90: read-out: B. mallei MIC90; for MIC: read-out: B. mallei MIC Range.
The test system of another assay is B. anthracis. The experiment in a line: microbe, parasite or virus in culture. As to conditions: Bacillus anthracis.
The next assay relates to P. aeruginosa 1705886. The experiment in a line: MIC, microtiter-based liquid assay (CLSI). As to conditions: Pseudomonas aeruginosa.
A further assay deals with K. pneumoniae 1705949. Description: MIC, microtiter-based liquid assay (CLSI). As to conditions: Klebsiella pneumoniae, MDR strain.
The next assay relates to P. aeruginosa 1705904. Description: MIC, microtiter-based liquid assay (CLSI). As to conditions: Pseudomonas aeruginosa, MDR strain.
[3] abbreviates: ATCC25922, read-out: MIC E. coli ATCC25922 + 50% HS.
Where [4] appears, read: ATCC25922, read-out: MIC E. coli ATCC25922.

With `CC(C)c1cc(CCC[C@H](C)N)cc(-c2cc3cn(-c4ccc([C@H](C)NCCCNC(=N)N)cc4)c(=O)nc3[nH]2)c1F` [Compound 7], the MIC50 in the assay with Y. pestis (Yersinia pestis) came to 0.25 µg/mL (≈ 0.435 µM); in the assay with B. pseudomallei (read-out: B. pseudomallei MIC50), 2 µg/mL (≈ 3.48 µM); in the assay with F. tularensis, 0.06 µg/mL (≈ 0.104 µM); in the assay on B. mallei, 0.06 µg/mL (≈ 0.104 µM); in the assay on B. anthracis (read-out: B. anthracis MIC50), 0.12 µg/mL (≈ 0.209 µM). Also, the MIC90 was determined as 0.5 µg/mL (≈ 0.87 µM) in the assay on Y. pestis (Yersinia pestis, read-out: Y. pestis MIC90); 4 µg/mL (≈ 6.96 µM) with B. pseudomallei (read-out: B. pseudomallei MIC90); 0.12 µg/mL (≈ 0.209 µM) in the assay on F. tularensis (read-out: F. tularensis MIC90); 0.12 µg/mL (≈ 0.209 µM) with B. mallei; 0.25 µg/mL (≈ 0.435 µM) in the assay with B. anthracis (read-out: B. anthracis MIC90). In addition, the MIC in the assay with Y. pestis (Yersinia pestis) was 0.06 to 1 µg/mL (≈ 0.104 to 1.74 µM); in the assay with P. aeruginosa ATCC27853 it was 8 µg/mL (≈ 13.9 µM); in the assay with E. coli 1705878, 1 µg/mL (≈ 1.74 µM); in assay [1], 0.25 µg/mL (≈ 0.435 µM); in [2], 2 µg/mL; against E. coli CAG12184 TolC, 0.5 µg/mL (≈ 0.87 µM). For the same compound, the MIC against A. baumannii 1705943 was 0.5 µg/mL (≈ 0.87 µM); in the assay on B. pseudomallei (read-out: B. pseudomallei MIC Range), 1 to 8 µg/mL (≈ 1.74 to 13.9 µM); with F. tularensis it was 0.03 to 0.5 µg/mL (≈ 0.0522 to 0.87 µM); in the assay with A. baumannii 1705936, 4 µg/mL (≈ 6.96 µM); against K. pneumoniae 1705966 it was 0.5 µg/mL (≈ 0.87 µM); with E. coli MG1655 parent it was 0.5 µg/mL (≈ 0.87 µM). The MIC in the assay with S. aureus 11540 MRSA was 0.5 µg/mL (≈ 0.87 µM); in the assay with E. coli ATCC25922 (setting [3]), 1 µg/mL; with E. coli ATCC25922 (setting [4]) it was 0.5 µg/mL (≈ 0.87 µM); in the assay on B. mallei, 0.03 to 0.5 µg/mL (≈ 0.0522 to 0.87 µM); with B. anthracis (read-out: B. anthracis MIC Range) it was 0.03 to 0.5 µg/mL (≈ 0.0522 to 0.87 µM); against P. aeruginosa 1705886, 4 µg/mL (≈ 6.96 µM). The compound further came in with an MIC in the assay on K. pneumoniae 1705949 of 1 µg/mL (≈ 1.74 µM).

For `C[C@H](NCCCNC(=N)N)c1ccc(-n2cc3cc(-c4cc(C5CCC(CN)CC5)cc(Cl)c4F)[nH]c3nc2=O)cc1` (stereo partly shown) [Compound 8], the “Y. pestis MIC50” value with Y. pestis stood at 0.06 µg/mL. The MIC50 is 0.12 µg/mL (≈ 0.202 µM) in the assay on Y. pestis (Yersinia pestis), 0.06 µg/mL (≈ 0.101 µM) with F. tularensis and at most 0.03 µg/mL with B. mallei. Further, the MIC was 0.03 to 0.5 µg/mL (≈ 0.0506 to 0.843 µM) in the assay with Y. pestis (Yersinia pestis); 4 µg/mL (≈ 6.74 µM) in the assay on P. aeruginosa ATCC27853; 1 µg/mL (≈ 1.69 µM) in the assay on E. coli 1705878; 0.5 µg/mL (≈ 0.843 µM) in [1]; 4 µg/mL in assay [2]; 0.25 µg/mL (≈ 0.421 µM) against E. coli CAG12184 TolC. Also, the MIC against A. baumannii 1705943 is 0.5 µg/mL (≈ 0.843 µM); with F. tularensis, 0.03 to 2 µg/mL (≈ 0.0506 to 3.37 µM); against A. baumannii 1705936 it was 1 µg/mL (≈ 1.69 µM); against P. aeruginosa 1705904, 4 µg/mL (≈ 6.74 µM); against K. pneumoniae 1705966 it was 1 µg/mL (≈ 1.69 µM); in the assay with E. coli MG1655 parent, 0.25 µg/mL (≈ 0.421 µM). Besides, the MIC was 0.25 µg/mL (≈ 0.421 µM) in the assay on S. aureus 11540 MRSA; 2 µg/mL with E. coli ATCC25922 (setting [3]); 0.5 µg/mL (≈ 0.843 µM) in the assay with E. coli ATCC25922 (setting [4]); 0.03 to 0.25 µg/mL (≈ 0.0506 to 0.421 µM) in the assay on B. mallei; 4 µg/mL (≈ 6.74 µM) in the assay on P. aeruginosa 1705886; 2 µg/mL (≈ 3.37 µM) in the assay with K. pneumoniae 1705949. Also, the MIC90 with B. mallei came to 0.12 µg/mL (≈ 0.202 µM).

Turning to `C=CC[C@H](NCCCNC(=N)N)c1ccc(-n2cc3cc(-c4cc(CCC[C@H](C)N)cc(Cl)c4F)[nH]c3nc2=O)cc1` [Compound 9], the MIC against P. aeruginosa ATCC27853 turned out to be 2 µg/mL (≈ 3.37 µM); in the assay with E. coli 1705878, 0.5 µg/mL (≈ 0.843 µM); in assay [1] it was 0.25 µg/mL (≈ 0.421 µM); in [2], 0.5 µg/mL; against E. coli CAG12184 TolC, 0.25 µg/mL (≈ 0.421 µM); in the assay on A. baumannii 1705943, 0.25 µg/mL (≈ 0.421 µM). Further, the MIC stood at 0.5 µg/mL (≈ 0.843 µM) against A. baumannii 1705936; 4 µg/mL (≈ 6.74 µM) against P. aeruginosa 1705904; 0.25 µg/mL (≈ 0.421 µM) in the assay with K. pneumoniae 1705966; 0.25 µg/mL (≈ 0.421 µM) in the assay on E. coli MG1655 parent; 0.25 µg/mL (≈ 0.421 µM) against S. aureus 11540 MRSA; 0.5 µg/mL in the assay on E. coli ATCC25922 (setting [3]). In addition, the results for the MIC in the assay with E. coli ATCC25922 (setting [4]), in the assay on P. aeruginosa 1705886 and against K. pneumoniae 1705949 were 0.25 µg/mL (≈ 0.421 µM), 2 µg/mL (≈ 3.37 µM) and 0.5 µg/mL (≈ 0.843 µM), respectively.

As for `CN(C)c1cc(NC(=O)CNC(C)(C)C)c(O)c2c1C[C@H]1C[C@H]3[C@H](N(C)C)C(O)=C(C(N)=O)C(=O)[C@@]3(O)C(O)=C1C2=O` [Tigecycline, reference compound], the MIC was 8 µg/mL (≈ 13.7 µM) in the assay with P. aeruginosa ATCC27853; 0.5 µg/mL (≈ 0.854 µM) against E. coli 1705878; at most 0.06 µg/mL in assay [1]; at most 0.06 µg/mL in assay [2]; 0.125 µg/mL (≈ 0.213 µM) with E. coli CAG12184 TolC; 0.125 µg/mL (≈ 0.213 µM) against A. baumannii 1705943. Besides, the MIC in the assay on A. baumannii 1705936 was 2 µg/mL (≈ 3.41 µM); in the assay with P. aeruginosa 1705904 it was over 32 µg/mL; in the assay on K. pneumoniae 1705966 it was 0.5 µg/mL (≈ 0.854 µM); in the assay with E. coli MG1655 parent, 0.25 µg/mL (≈ 0.427 µM); in the assay with S. aureus 11540 MRSA, 0.25 µg/mL (≈ 0.427 µM); in the assay on E. coli ATCC25922 (setting [3]), 0.25 µg/mL. Also, the MIC with E. coli ATCC25922 (setting [4]) was determined as 0.125 µg/mL (≈ 0.213 µM); against P. aeruginosa 1705886, 8 µg/mL (≈ 13.7 µM); in the assay on K. pneumoniae 1705949 it was 1 µg/mL (≈ 1.71 µM).

In the case of `NC[C@H]1O[C@H](O[C@H]2[C@H](O)[C@@H](O[C@H]3O[C@H](CO)[C@@H](O)[C@H](N)[C@H]3O)[C@H](N)C[C@@H]2N)[C@H](N)C[C@@H]1O` [Tobramycin, reference compound], the MIC against P. aeruginosa ATCC27853 was 0.5 µg/mL (≈ 1.07 µM); against E. coli 1705878 it was 64 µg/mL (≈ 137 µM); in assay [1], 16 µg/mL (≈ 34.2 µM); in assay [2] it was over 128 µg/mL; against E. coli CAG12184 TolC, 1 µg/mL (≈ 2.14 µM); against A. baumannii 1705943, at most 0.25 µg/mL. The MIC is 8 µg/mL (≈ 17.1 µM) against A. baumannii 1705936; 128 µg/mL (≈ 274 µM) with P. aeruginosa 1705904; at most 0.25 µg/mL against K. pneumoniae 1705966; 1 µg/mL (≈ 2.14 µM) in the assay on E. coli MG1655 parent; 0.5 µg/mL (≈ 1.07 µM) with S. aureus 11540 MRSA; 1 µg/mL with E. coli ATCC25922 (setting [3]). Moreover, the MIC is 1 µg/mL (≈ 2.14 µM) in the assay on E. coli ATCC25922 (setting [4]), 0.5 µg/mL (≈ 1.07 µM) against P. aeruginosa 1705886 and over 128 µg/mL with K. pneumoniae 1705949.

These data come from US9937183B2, “Antimicrobial compounds and methods of making and using the same” (priority 2013, dated 2018).
